The source of these data is the NIST ThermoML archive (doi:10.1021/je2002539).

Numbers after ± are expanded uncertainties.

The data set is described as follows: refractive index (Na D-line) (dimensionless). Conditions: 298.15 K; 101.33 kPa; Liquid; Standard Abbe refractometry.

One may read the refractive index as the speed of light in vacuum divided by its phase velocity in the sample. On to `CCCO` [propan-1-ol], for which the refractive index was 1.38305 ± 0.00033.
In the case of `O` [water] it was 1.33248 ± 0.00031.
Take `CCCCCCCCCO` [nonan-1-ol]: the refractive index turned out to be 1.43084 ± 0.00033.
In the case of `CCCCCCCCO` [octan-1-ol] it was 1.42695 ± 0.00033.
With `CCCCCCCCCCO` [decan-1-ol] the figure was 1.43436 ± 0.00033.
With `CCCCCO` [pentan-1-ol] the figure was 1.40703 ± 0.00033; with `CCCCCCCCCCCCO` [dodecan-1-ol], 1.44058 ± 0.00033.
Regarding `CCCCCCO` [hexan-1-ol], the refractive index was found to be 1.4158 ± 0.00033.
